Assay results: ChEMBL document CHEMBL1201862, “PubChem BioAssay data set” (2004)
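Values below derive from 48-hour exposures of cells grown in 96-well plates, with endpoints linearly interpolated between the two concentrations bracketing the appropriate inhibition level. The concentration for 50% growth inhibition is given as GI50.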 Active and inactive are the calls of the source. Rule as the data show it: active = GI50 up to about 1.1 µM and inactive = higher.

Experiments:
Test in all cases: growth of human tumour cells (NCI), 48 h
786-0 = system: 786-0
A498 = system: A498
A549 = system: A549
ACHN = system: ACHN
CAKI-1 = system: CAKI-1
CCRF-CEM = system: CCRF-CEM
COLO 205 = system: COLO 205
DU-145 = system: DU-145
EKVX = system: EKVX
HCC 2998 = system: HCC 2998
HCT-116 = system: HCT-116
HCT-15 = system: HCT-15
HL-60 = system: HL-60
HOP-62 = system: HOP-62
HOP-92 = system: HOP-92
HT-29 = system: HT-29
Hs-578T = system: Hs-578T
IGROV-1 = system: IGROV-1
K562 = system: K562
KM12 = system: KM12
LOX IMVI = system: LOX IMVI
M14 = system: M14
MCF7 = system: MCF7
MDA-MB-231 = system: MDA-MB-231
MDA-MB-435 = system: MDA-MB-435
MDA-N = system: MDA-N
MOLT-4 = system: MOLT-4
Malme-3M = system: Malme-3M
NCI-H226 = system: NCI-H226
NCI-H23 = system: NCI-H23
NCI-H460 = system: NCI-H460
NCI-H522 = system: NCI-H522
NCI/ADR-RES = system: NCI/ADR-RES
OVCAR-3 = system: OVCAR-3
OVCAR-4 = system: OVCAR-4
OVCAR-5 = system: OVCAR-5
OVCAR-8 = system: OVCAR-8
PC-3 = system: PC-3
RPMI-8226 = system: RPMI-8226
RXF 393 = system: RXF 393
SF-268 = system: SF-268
SF-295 = system: SF-295
SF-539 = system: SF-539
SK-MEL-28 = system: SK-MEL-28
SK-MEL-2 = system: SK-MEL-2
SK-MEL-5 = system: SK-MEL-5
SK-OV-3 = system: SK-OV-3
SN12C = system: SN12C
SNB-19 = system: SNB-19
SNB-75 = system: SNB-75
SR = system: SR
SW-620 = system: SW-620
T47D = system: T47D
TK-10 = system: TK-10
U-251 = system: U-251
UACC-257 = system: UACC-257
UACC-62 = system: UACC-62
UO-31 = system: UO-31

CC(C)(C)NCc1cc(Nc2ccnc3cc(Cl)ccc23)cc(-c2ccc(Cl)cc2)c1O
GI50 (786-0): 1.87 µM (inactive)
GI50 (A498): 2.94 µM (inactive)
GI50 (A549): 5.4 µM (inactive)
GI50 (ACHN): 4.29 µM (inactive)
GI50 (CAKI-1): 2.99 µM (inactive)
GI50 (CCRF-CEM): 0.809 µM (active)
GI50 (COLO 205): 1.81 µM (inactive)
GI50 (DU-145): 4.53 µM (inactive)
GI50 (EKVX): 3.72 µM (inactive)
GI50 (HCC 2998): 2.21 µM (inactive)
GI50 (HCT-116): 2.08 µM (inactive)
GI50 (HCT-15): 2.44 µM
GI50 (HL-60): 1.97 µM (inactive)
GI50 (HOP-62): 2.06 µM (inactive)
GI50 (HOP-92): 1.87 µM (inactive)
GI50 (HT-29): 1.87 µM (inactive)
GI50 (Hs-578T): 3.43 µM (inactive)
GI50 (IGROV-1): 2.02 µM (inactive)
GI50 (K562): 1.04 µM (active)
GI50 (KM12): 3.5 µM (inactive)
GI50 (LOX IMVI): 2.17 µM (inactive)
GI50 (M14): 2.18 µM (inactive)
GI50 (MCF7): 1.6 µM (inactive)
GI50 (MDA-MB-231): 3 µM (inactive)
GI50 (MDA-MB-435): 1.91 µM (inactive)
GI50 (MDA-N): 1.68 µM (inactive)
GI50 (MOLT-4): 1.82 µM (inactive)
GI50 (Malme-3M): 1.84 µM (inactive)
GI50 (NCI-H226): 6.12 µM (inactive)
GI50 (NCI-H23): 3.64 µM (inactive)
GI50 (NCI-H460): 2.03 µM (inactive)
GI50 (NCI-H522): 3.65 µM (inactive)
GI50 (NCI/ADR-RES): 3.05 µM (inactive)
GI50 (OVCAR-3): 2.66 µM (inactive)
GI50 (OVCAR-4): 3.36 µM (inactive)
GI50 (OVCAR-5): 4.68 µM (inactive)
GI50 (OVCAR-8): 3.81 µM (inactive)
GI50 (PC-3): 1.99 µM (inactive)
GI50 (RPMI-8226): 1.69 µM (inactive)
GI50 (RXF 393): 1.79 µM (inactive)
GI50 (SF-268): 3.48 µM (inactive)
GI50 (SF-295): 2.5 µM (inactive)
GI50 (SF-539): 1.85 µM (inactive)
GI50 (SK-MEL-28): 1.72 µM (inactive)
GI50 (SK-MEL-2): 2.24 µM (inactive)
GI50 (SK-MEL-5): 1.77 µM (inactive)
GI50 (SK-OV-3): 3.07 µM (inactive)
GI50 (SN12C): 3.11 µM (inactive)
GI50 (SNB-19): 4.44 µM (inactive)
GI50 (SNB-75): 2.02 µM (inactive)
GI50 (SR): 1.21 µM (inactive)
GI50 (SW-620): 2.26 µM (inactive)
GI50 (T47D): 3.27 µM (inactive)
GI50 (TK-10): 2.43 µM (inactive)
GI50 (U-251): 2.59 µM (inactive)
GI50 (UACC-257): 2.03 µM (inactive)
GI50 (UACC-62): 1.92 µM (inactive)
GI50 (UO-31): 4.17 µM (inactive)

BrCCCCCOc1ccc(-c2c3ccccc3c(-c3ccc(OCCCCCBr)cc3)c3ccccc23)cc1
GI50 (786-0): > 100 µM (inactive)
GI50 (A549): > 100 µM (inactive)
GI50 (ACHN): > 100 µM (inactive)
GI50 (CAKI-1): > 100 µM (inactive)
GI50 (CCRF-CEM): > 100 µM (inactive)
GI50 (COLO 205): > 100 µM (inactive)
GI50 (DU-145): > 100 µM (inactive)
GI50 (EKVX): > 100 µM (inactive)
GI50 (HCC 2998): > 100 µM (inactive)
GI50 (HCT-116): > 100 µM (inactive)
GI50 (HCT-15): > 100 µM
GI50 (HL-60): > 100 µM (inactive)
GI50 (HOP-62): > 100 µM (inactive)
GI50 (HT-29): > 100 µM (inactive)
GI50 (Hs-578T): 35.7 µM (inactive)
GI50 (IGROV-1): > 100 µM (inactive)
GI50 (K562): > 100 µM (inactive)
GI50 (KM12): > 100 µM (inactive)
GI50 (M14): > 100 µM (inactive)
GI50 (MCF7): > 100 µM (inactive)
GI50 (MDA-MB-231): > 100 µM (inactive)
GI50 (MDA-MB-435): > 100 µM (inactive)
GI50 (MDA-N): > 100 µM (inactive)
GI50 (MOLT-4): > 100 µM (inactive)
GI50 (NCI-H226): > 100 µM (inactive)
GI50 (NCI-H460): > 100 µM (inactive)
GI50 (NCI/ADR-RES): > 100 µM (inactive)
GI50 (OVCAR-4): > 100 µM (inactive)
GI50 (OVCAR-5): > 100 µM (inactive)
GI50 (OVCAR-8): > 100 µM (inactive)
GI50 (PC-3): > 100 µM (inactive)
GI50 (RPMI-8226): > 100 µM (inactive)
GI50 (RXF 393): > 100 µM (inactive)
GI50 (SF-268): > 100 µM (inactive)
GI50 (SF-295): > 100 µM (inactive)
GI50 (SF-539): > 100 µM (inactive)
GI50 (SK-MEL-28): > 100 µM (inactive)
GI50 (SK-MEL-2): > 100 µM (inactive)
GI50 (SK-MEL-5): > 100 µM (inactive)
GI50 (SK-OV-3): > 100 µM (inactive)
GI50 (SN12C): > 100 µM (inactive)
GI50 (SNB-19): > 100 µM (inactive)
GI50 (SNB-75): 38.5 µM (inactive)
GI50 (SR): > 100 µM (inactive)
GI50 (SW-620): > 100 µM (inactive)
GI50 (T47D): > 100 µM (inactive)
GI50 (TK-10): > 100 µM (inactive)
GI50 (U-251): > 100 µM (inactive)
GI50 (UACC-257): > 100 µM (inactive)
GI50 (UACC-62): > 100 µM (inactive)
GI50 (UO-31): > 100 µM (inactive)

CC1=NN(c2cccc(Cl)c2)C2(C1=Cc1ccc(N(C)C)cc1)C(Cl)C(=O)N2c1nc2ccccc2s1 (stereo not given)
GI50 (786-0): 43.1 µM (inactive)
GI50 (A498): 36.3 µM (inactive)
GI50 (ACHN): 53.2 µM (inactive)
GI50 (CAKI-1): 72.9 µM (inactive)
GI50 (CCRF-CEM): 50.5 µM (inactive)
GI50 (DU-145): 97.5 µM (inactive)
GI50 (EKVX): > 100 µM (inactive)
GI50 (HCC 2998): 17.8 µM (inactive)
GI50 (HCT-116): 60 µM (inactive)
GI50 (HCT-15): 77.4 µM
GI50 (HL-60): > 100 µM (inactive)
GI50 (HOP-62): 17.8 µM (inactive)
GI50 (HOP-92): 18.6 µM (inactive)
GI50 (HT-29): 25.5 µM (inactive)
GI50 (Hs-578T): 23.5 µM (inactive)
GI50 (IGROV-1): 40.7 µM (inactive)
GI50 (K562): 56.9 µM (inactive)
GI50 (KM12): 3.95 µM (inactive)
GI50 (LOX IMVI): > 100 µM (inactive)
GI50 (M14): 18.7 µM (inactive)
GI50 (MCF7): 70.5 µM (inactive)
GI50 (MDA-MB-231): 46.8 µM (inactive)
GI50 (MDA-MB-435): 6.18 µM (inactive)
GI50 (MDA-N): 63.7 µM (inactive)
GI50 (MOLT-4): 74 µM (inactive)
GI50 (NCI-H226): > 100 µM (inactive)
GI50 (NCI-H23): 45.5 µM (inactive)
GI50 (NCI-H460): > 100 µM (inactive)
GI50 (NCI-H522): 19.1 µM (inactive)
GI50 (NCI/ADR-RES): 63.5 µM (inactive)
GI50 (OVCAR-3): 39.5 µM (inactive)
GI50 (OVCAR-4): 24.2 µM (inactive)
GI50 (OVCAR-5): > 100 µM (inactive)
GI50 (OVCAR-8): 73.3 µM (inactive)
GI50 (PC-3): > 100 µM (inactive)
GI50 (RPMI-8226): 41 µM (inactive)
GI50 (RXF 393): 20.3 µM (inactive)
GI50 (SF-268): 20.3 µM (inactive)
GI50 (SF-295): 67.1 µM (inactive)
GI50 (SF-539): 49.1 µM (inactive)
GI50 (SK-MEL-28): > 100 µM (inactive)
GI50 (SK-MEL-2): 60.3 µM (inactive)
GI50 (SK-MEL-5): 49.1 µM (inactive)
GI50 (SK-OV-3): 34.4 µM (inactive)
GI50 (SR): > 100 µM (inactive)
GI50 (SW-620): 19.6 µM (inactive)
GI50 (T47D): 50.8 µM (inactive)
GI50 (TK-10): 76.4 µM (inactive)
GI50 (U-251): 53.7 µM (inactive)
GI50 (UACC-257): > 100 µM (inactive)
GI50 (UO-31): > 100 µM (inactive)
